B1: recombinant human Ang1 (rhAng1) (ligand, UniProt Q15389 16-498, looked up)
chain: HIGCSNQRRSPENSGRRYNRIQHGQCAYTFILPEHDGNCRESTTDQYNTNALQRDAPHVEPDFSSQKLQHLEHVMENYTQWLQKLENYIVENMKSEMAQIQQNAVQNHTATMLEIGTSLLSQTAEQTRKLTDVETQVLNQTSRLEIQLLENSLSTYKLEKQLLQQTNEILKIHEKNSLLEHKILEMEGKHKEELDTLKEEKENLQGLVTRQTYIIQELEKQLNRATTNNSVLQKQQLELMDTVHNLVNLCTKEGVLLKGGKREEEKPFRDCADVYQAGFNKSGIYTIYINNMPEPKKVFCNMDVNGGGWTVIQHREDGSLDFQRGWKEYKMGFGNPSGEYWLGNEFIFAITSQRQYMLRIELMDWEGNRAYSQYDRFHIGNEKQNYRLYLKGHTGTAGKQSSLILHGADFSTKDADNDNCMCKCALMLTGGWWFDACGPSNLNGMFYTAGQNHGKLNGIKWHYFKGPSYSLRSTTMMIRPLDF
notes: angiopoietin-1, human, recombinant; also called angiopoietin-1; source: bought: R&D Systems (named for the Boyden chamber experiments)

System: CMPTX-labeled tumor cells across HMVEC-LBl
Assay: modified Boyden chamber, trans-endothelial tumor cell migration, HMVEC-LBl
Assay type: cell-based, human
Details: 20 h, Fig1B, C
Procedure: ECs were first treated with Vasculotide (VT), PBS (vehicle/negative control), Ang1 (positive control), PEG-Cys (polyethylene glycol backbone), T7c (non-PEGylated CHHHRHSF peptides), or VT in the presence of 100-fold molar excess of T7c. The concentrations used, 10–20 ng/mL VT and 200–400 ng/mL Ang1, are estimated molar equivalents (0.71–1.43 nM). Thirty minutes later, ECs were stimulated with thrombin, 0.1% BSA (vehicle/negative control), or EDTA (positive control). Another 30mins later, the amount of FITC-dextran diffusion into the lower chambers (A, D) provides a measure of endothelial permeability. CMTPX-labeled tumor cells (TCs) were then dispensed into inserts, and the amount of TC fluorescence emitting from the underside of insert membranes after 20 h (B–C) or 28 h (E) reflects the efficiency of trans-endothelial TC migration. […] Three experiments (twice with HMVEC-LBl and once with HMVEC-DBl) were run with n = 3–5 inserts (independent biological replicates) per group and analyzed by two-sampled unpaired t-tests. […]
Endothelial cells (ECs) were grown on cell culture inserts with uncoated 8-μm-pore PET filter membranes to 100% confluency. […] After 30 min of thrombin stimulation or 4–6 h of TC-CM stimulation, FITC fluorescence (ex/em = 490/520 nm) was measured from a 50 μl sample of the lower chamber media. […]

Row | Molecule | thrombin-stimulated migration of CMTPX-labeled TCs
1 | CHHHRHSF [Vasculotide, 4-armed maleimide-functionalized polyethylene glycol (PEG) backbone to link together four cysteine-capped T7 peptides, that is, CHHHRHSF] | trends of reducing thrombin-stimulated migration
2 | B1 | counteract thrombin induction of trans-endothelium macromolecular permeability and tumor cell migration

From paper PMC4459817, “Vasculotide reduces endothelial permeability and tumor cell extravasation in the absence of binding to or agonistic activation of Tie2” (EMBO Molecular Medicine, 2015)
